Assay results reported in patent US20230098254A1, “SCUTELLARIAE RADIX COMPOUNDS AND USE THEREOF FOR INHIBITING OXIDATIVE PHOSPHORYLATION PATHWAY OF MITOCHONDRIA” (priority 2020, published 2023).

Assays:
Type in all cases: cell-based
G-402 = assay: Cell viability CellTiter-Glo, G-402; conditions: Homo sapiens; G-402, kidney cancer
Procedure: (§1) Cell viability was measured by using the Promega CellTiter-Glo kit, the kit reflected cell viability by directly measuring intracellular ATP content. Different cancer cells were cultured in culture medium, and the 50% inhibitory concentration IC50 of the compound SJ2858 was measured by Promega CellTiter-Glo kit. The name source and culture condition of each tumor cell line were as follows:
Cell line G-402 (ATCC, No. CRL-1440) was cultured in McCoy's 5a medium containing 10% fetal bovine serum (+P/S);

SNU-449 = assay: Cell viability CellTiter-Glo, SNU-449; conditions: Homo sapiens; SNU-449, liver cancer
Procedure: as §1
Cell line SNU-449 (ATCC, No. CRL-2234) was cultured in RPMI1640 medium containing 10% fetal bovine serum (+P/S);

H9 = assay: Cell viability CellTiter-Glo, H9; conditions: Homo sapiens; H9, lymphoma
Procedure: as §1
Cell line H9 (ATCC, No. HTB-176) was cultured in RPMI1640 medium containing 10% fetal bovine serum (+P/S);

ACHN = assay: Cell viability CellTiter-Glo, ACHN; conditions: Homo sapiens, kidney cancer
Procedure: as §1
Cell line ACHN (ATCC, No. CRL-1611) was cultured in EMEM medium containing 10% fetal bovine serum (+P/S);

SNU-398 = assay: Cell viability CellTiter-Glo, SNU-398; conditions: Homo sapiens; SNU-398, liver cancer
Procedure: as §1
Cell line SNU-398 (ATCC, No. CRL-2233) was cultured in RPMI1640 medium (+P/S); containing 10% fetal bovine serum (+P/S);

GAK = assay: Cell viability CellTiter-Glo, GAK; conditions: melanoma
Procedure: as §1
Cell line GAK (JCRB, No. JCRB0180) was cultured in Ham's F12 medium containing 20% fetal bovine serum (+P/S);

DU 145 = assay: Cell viability CellTiter-Glo, DU 145; conditions: Homo sapiens; DU 145, prostate cancer
Procedure: as §1
Cell line DU 145 (ATCC, No. HTB-81) was cultured in EMEM medium containing 10% fetal bovine serum (+P/S);

HCC15 = assay: Cell viability CellTiter-Glo, HCC15; conditions: HCC15, lung cancer
Procedure: as §1
Cell line HCC15 (KCLB, No. 70015) was cultured in RPMI1640 medium containing 10% fetal bovine serum (+P/S);

MDA-MB-453 = assay: Cell viability CellTiter-Glo, MDA-MB-453; conditions: Homo sapiens; MDA-MB-453, breast cancer
Procedure: as §1
Cell line MDA-MB-453 (ATCC, No. HTB-131) was cultured in Leibovitz's L-15 medium containing 10% fetal bovine serum (+P/S);

NCI-H82 cell = assay: Cell viability, Promega CellTiter-Glo, NCI-H82 cell; conditions: Homo sapiens, NCI-H82; read-out: IC50 of cell viability inhibition
Procedure: Cell viability was detected by using the Promega CellTiter-Glo kit, the kit reflected cell viability by directly measuring intracellular ATP content. […] Daoy cell and NCI-H82 cell were cultured in DMEM containing 10% FBS (plus p/s).

SF126 = assay: Cell viability CellTiter-Glo, SF126; conditions: Homo sapiens, SF-126; SF126, brain cancer
Procedure: as §1
Cell line SF126 (JCRB, No. IFO50286) was cultured in EMEM medium containing 10% fetal bovine serum (+P/S);

COLO 320HSR = assay: Cell viability CellTiter-Glo, COLO 320HSR; conditions: Homo sapiens, intestinal cancer
Procedure: as §1
Cell line COLO 320HSR (ATCC, No. CCL-220.1) was cultured in RPMI1640 medium containing 10% fetal bovine serum (+P/S);

22RV1 = assay: Cell viability CellTiter-Glo, 22RV1; conditions: Homo sapiens; 22RV1, prostate cancer
Procedure: as §1
Cell line 22RV1 (ATCC, No. CRL-2505) was cultured in RPMI1640 medium containing 10% fetal bovine serum (+P/S);

D283 Med = assay: Cell viability CellTiter-Glo, D283 Med; conditions: Homo sapiens, brain cancer
Procedure: as §1
Cell line D283 Med (ATCC, No. HTB-185) was cultured in EMEM medium containing 10% fetal bovine serum (+P/S);

U-87 MG = assay: Cell viability CellTiter-Glo, U-87 MG; conditions: Homo sapiens, brain cancer
Procedure: as §1
Cell line U-87MG (ATCC, No. HTB-14) was cultured in EMEM medium containing 10% fetal bovine serum (+P/S);

HH = assay: Cell viability CellTiter-Glo, HH; conditions: Homo sapiens, lymphoma
Procedure: as §1
Cell line HH (ATCC, No. CRL-2105) was cultured in RPMI1640 medium containing 10% fetal bovine serum (+P/S);

U-937 = assay: Cell viability CellTiter-Glo, U-937; conditions: Homo sapiens; U-937, lymphoma
Procedure: as §1
Cell line U-937 (ATCC, No. CRL-1593.2) was cultured in RPMI1640 medium containing 10% fetal bovine serum (+P/S);

G-361 = assay: Cell viability CellTiter-Glo, G-361; conditions: Homo sapiens; G-361, melanoma
Procedure: as §1
Cell line G-361 (ATCC, No. CRL-1424) was cultured in McCoy's 5a medium containing 10% fetal bovine serum (+P/S).

Jurkat, Clone E6-1 = assay: Cell viability CellTiter-Glo, Jurkat, Clone E6-1; conditions: Homo sapiens, Clone E6-1, leukemia
Procedure: as §1
Cell line Jurkat, Clone E6-1 (ATCC, No. TIB-152) was cultured in RPMI1640 medium containing 10% fetal bovine serum (+P/S);

786-O = assay: Cell viability CellTiter-Glo, 786-O; conditions: Homo sapiens, 786-0, kidney cancer
Procedure: as §1
Cell line 786-O (ATCC, No. CRL-1932) was cultured in RPMI1640 medium containing 10% fetal bovine serum (+P/S);

BT-549 = assay: Cell viability CellTiter-Glo, BT-549; conditions: Homo sapiens; BT-549, breast cancer
Procedure: as §1
Cell line BT-549 (ATCC, No. HTB-122) was cultured in RPMI1640 medium containing 10% fetal bovine serum and 0.023 IU/ml human insulin (+P/S);

OCI-AML-5 = assay: Cell viability CellTiter-Glo, OCI-AML-5; conditions: Homo sapiens; OCI-AML-5, leukemia
Procedure: as §1
Cell line OCI-AML-5 (DSMZ, No. ACC-247) was cultured in alpha-MEM medium containing 20% fetal bovine serum and 20% volume fraction of 5637 cell line adjusted medium (+P/S);

Which results are given for `O=c1cc(-c2ccccc2)oc2cc(O)c(O)c(O)c12` [Compound SJ2858, baicalein]?
IC50 (G-402): 4.2 µM; IC50 (SNU-449): 26.9 µM; IC50 (H9): 19 µM; IC50 (ACHN): 17.7 µM; IC50 (SNU-398): 13 µM; IC50 (GAK): 23.1 µM; IC50 (DU 145): 37.8 µM; IC50 (HCC15): 18.9 µM; IC50 (MDA-MB-453): 75.3 µM; IC50 (NCI-H82 cell): 15.6 µM; IC50 (SF126): 14 µM; IC50 (COLO 320HSR): 17.8 µM; IC50 (22RV1): 25.9 µM; IC50 (D283 Med): 12.9 µM; IC50 (U-87 MG): 19 µM; IC50 (HH): 34 µM; IC50 (U-937): 39.2 µM; IC50 (G-361): 33.6 µM; IC50 (Jurkat, Clone E6-1): 14.2 µM; IC50 (786-O): 10.6 µM; IC50 (BT-549): 18.1 µM; IC50 (OCI-AML-5): 45.1 µM
